For assay [1], the system named is ATP7B H1069Q. Briefly: Morphological assay of ATP7B H1069Q exit from ER to Golgi in HeLa cells (fluorescence microscopy). Conditions: HeLa cells expressing ATP7B H1069Q-GFP; 24 h. Format: cell-based, human. The procedure: (§1) Cells were transfected with ATP7B-WT-GFP or ATP7B-H1069Q-GFP, incubated overnight with 200 μM BCS and/or drugs. Fixed cells were further labeled for TGN46 to mark and visualize the Golgi area under a confocal microscope. Under low copper conditions ATP7B-WT traffics to the Golgi from the ER, while ATP7B-H1069Q is retained within the ER. If the drug treatments induce the rescue of trafficking from the ER to the Golgi, the ATP7B-H1069Q-GFP fluorescence in the Golgi area increases. This is measured by quantifying (in 10 different microscopy fields in 100 cells) the increased in fluorescence of ATP7BWT-GFP or ATP7BH1069Q-GFP in the Golgi area (marked by TGN46) and normalizing this value to total cell fluorescence
CFBE or HeLa cells (in case of ATP7B) were transfected with constructs encoding the indicated mutant proteins and treated with JNKi II for 48 h.

Assay [2] has as its system ATP7B H1069Q. As to the kind of experiment: Traffic-based screening of ATP7B H1069Q-GFP rescue in HEPG2 cells. Type of assay: cell-based, human. Conditions: HEPG2 cells expressing ATP7B H1069Q-GFP; 24 h. The procedure:
(§2) Transiently ATP7B H1069Q-GFP expressing HeLa cells (A), HEPG2 cells and (C) human primary hepatocytes (E) treated with the inhibitors for 24 hours, cells are processed for immunofluorescence assay to measure the arrival of the ATP7B wt and H1069Q mutant from the ER to Golgi compartment. A, C, E) Normalized Golgi fluorescence of ATP7B is measured and plotted (n >50 cells). B, D, F) EC50 and recue effect (%) compared to the level ATP7B WT Golgi fluorescence calculated from (A), (C) and (E) respectively. […] All the inhibitor drugs except SB202190 are in clinical trial for treatment of various other diseases.
as §1, with “cell fluorescence […]” for “cell fluorescence”

For assay [3], the system named is ATP7B H1069Q. Briefly: Traffic-based screening of ATP7B H1069Q-GFP rescue in human primary hepatocytes. The conditions noted are these: human primary hepatocytes expressing ATP7B H1069Q-GFP; 24 h. Format: cell-based. The procedure: as §2
as §1, with “cell fluorescence […]” for “cell fluorescence”

Assay [4] deals with ATP7BH1069Q. As to the kind of experiment: Copper estimation in HepG2 cells overexpressing ATP7BH1069Q. Type of assay: cell-based, human. The conditions noted are these: 1 μM, 24 hours, 200 μM copper sulphate for the last 2 hours. The procedure: FIG. 14: The VX-745 and BIRB-796 correctors reduce Copper levels in cells expressing ATP7BH1069Q mutant. HepG2 cells overexpressing indicated ATP7B constructs were incubated with 1 μM each of VX-745, BIRB-796 for 24 hours, for the last 2 hours of incubation with the inhibitors 200 μM copper sulphate is added to the cells with or without 100 μM BCS (copper chelator) as indicated. Cells were incubated with HBSS for 3 hours before lysed and used for copper estimation. Fold change in copper normalized to control is plotted (n=4). Both VX-745 and BIRB-796 reduced Copper levels in ATP7BH1069Q expressing cells (BCS is used in the assay as a control for the sensitivity of the assay).
Cells are lysed in RIPA buffer (150 mM NaCl, 1% Triton X-100, 0.5% deoxycholic acid, 0.1% SDS, 20 mM Tris-HCl, pH 7.4). 500 μg of total protein lysate in 100 μl is taken for copper estimation using Copper assay kit (MAK127 sigma-aldrich) according to the manufacturer's protocol.
ATP7B protein functions in the excretion of copper out of cells and tissue. As ATP7B H1069Q trafficking to the plasma membrane is impaired, the cells cannot excrete the copper, which leads to higher level of intracellular copper. If the corrector drugs promote the correct localization of the mutant, then the copper should be excreted, leading to lower intracellular levels.

In assay [5] the test system is F508del-CFTR. Briefly: F508del-CFTR proteostasis by western blotting (ER band B / Golgi-processed band C) in CFBE cells. Type of assay: cell-based, human. The conditions noted are these: for levels of band B and band C of F508del-CFTR: concentration series; for decrease in levels of F508del-CFTR: rapid, abolished by MLK3 downregulation. On the procedure: Cells were washed three times in ice-cold Dulbecco's phosphate-buffered saline, and lysed in RIPA buffer (150 mM NaCl, 1% Triton X-100, 0.5% deoxycholic acid, 0.1% SDS, 20 mM Tris-HCl, pH 7.4), supplemented with protease inhibitor cocktail and phosphatase inhibitors. The lysates were clarified by centrifugation at 15000×g for 15 min, and the supernatants were resolved by SDS-PAGE. BCA Protein Assay kit (Pierce) was used to quantitate protein levels before loading. The western blots were decorated with appropriate antibodies and developed using ECL. The blots were then exposed to x-ray films and exposure time was varied to obtain optimal signal. The x-ray films were then scanned and the bands were quantitated using ImageJ gel-analysis tool. The protein concentration and the exposures used for quantitation of the blots were optimized to be in a linear range of detection.
Inventors then turned to experimental validation of the role of the CORE genes in the regulation of F508del-CFTR proteostasis. Experiments were carried out using a characterised biochemical assay that detects both the amount of core-glycosylated CFTR trapped in the ER (band B with Western blotting) and the amount of CFTR fully glycosylated in the Golgi (most of which presumably resides at the PM; band C with Western blotting).

In assay [6] the test system is proteasome. As to the kind of experiment: Proteasome ZsProsensor-1 fluorescence in CFBE cells. Format: cell-based, human. The conditions noted are these: MG132 20 μg/ml for 3 h, positive control.
Experimental: CFBE cells treated with MLK3 or JNK2 siRNA for 72 h were transfected with Proteasome ZsProsensor-1 for the final 24 h, and the levels Proteasome ZsProsensor-1 monitored by fluorescence microscopy. Treatment with MG132 (20 μg/ml for 3 h), a proteasomal inhibitor, was used as a positive control.
Assay [7] deals with JNK. Briefly: phospho-c-jun levels by western blotting as a measure of JNK inhibition in CFBE cells. The conditions noted are these: 24 h, oxozeaenol 5 μM. Format: cell-based, human. The procedure:
A. CFBE cells were treated with indicated JNK inhibitors for 24 h and processed for western blotting. The levels of phospho-c-jun as a measure of JNK inhibition was monitored. […] B. CFBE cells were treated with TAK1 or MLK3 siRNA as indicated and changes in F508del-CFTR proteostasis were monitored by western blotting.
C. CFBE cells were treated with 5 μM oxozeaenol for 48 h, or with MLK3 siRNA, or with both, and the correction of the F508del-CFTR folding/trafficking defect was monitored by changes in the levels of band C. There was no additive effect observed with the combination of MLK3 downregulation and oxozeaenol treatment. The quantitated band C levels are expressed as mean±SD (n>3). D. CFBE cells were treated with 5 μM oxozeaenol for 24 h, and the activity of the JNK pathway was measured by western blotting for phospho c-jun levels and F508del-CFTR. […] E. CFBE cells were treated with flunarizine (at concentrations 6.25-50 μM) targeting the CAMKK2 pathway for 48 h and the effect on F508del-CFTR proteostasis measured by western blotting. Treatment with flunarizine increased the levels of band C of F508del-CFTR. […] F. CFBE cells transiently transfected with the P-glycoprotein mutant (P-gp DY490), the NCC mutant (R948X), or the hERG mutant (G601S) were treated with JNKi II for 24 h, and the effect of the drug on their proteostasis monitored by western blotting. […]
A general note: In western blotting, separated proteins are transferred to a membrane and probed.

Assay [8] concerns ATP7BH1069Q. Briefly: Immunofluorescence assay for correction of ATP7B: cells with ATP7BH1069Q signal in the ER, HeLa cells. The conditions noted are these: 24 h, SB202190 5 μM, VX-745 1 μM, SP600125 2 μM, Oxozeaenol 5 μM, 100 μM CuSO4 2 h. Format: cell-based, human. On the procedure:
(A) HeLa cells were infected with Ad-ATP7BWT-GFP (Chesi et al., 2016) or Ad-ATP7BH1069Q-GFP, incubated overnight with 200 μM BCS, and incubated for an additional 2 h with 100 μM CuSO4. In response to Cu, ATP7BWT traffics from the Golgi to PM and vesicle, while ATP7BH1069Q are retained within the ER under high Cu conditions. Addition of p38 inhibitor SB202190 (5 μM), VX-745(1 μM), JNK inhibitor SP600125 (2 μM) and Oxozeaenol (5 μM) (as indicated in corresponding panels) to the cells 24 h corrects ATP7BH1069Q from the ER to PM and vesicles (arrows) (B) Cells were treated as in panel A. The percentage of the cells (average±SD, n=50 fields) with an ATP7B signal in the ER, were calculated.
Cells were fixed with 4% paraformaldehyde in 0.2 M HEPES for 10 mins, permeabilized, labeled with primary and secondary antibodies, and examined with a ZEISS LSM 700 confocal microscope equipped with a 63×1.4 numerical aperture oil objective. The cells were scored based on the disappearance of ATP7B from the ER.

Assay [9] relates to F508del-CFTR. The conditions noted are these: primary human bronchial epithelial cells (Trzcinska-Daneluti et al. 2012); cited from earlier work.

Peptide text beside a SMILES is read from it. * marks the point of attachment. Cbz = O=C(OCc1ccccc1)*

For `Cc1ccc(-n2nc(C(C)(C)C)cc2NC(=O)Nc2ccc(OCCN3CCOCC3)c3ccccc23)cc1` [BIRB-796], the “rescue of ATP7B H1069Q localization (ER exit to the Golgi compartment)” value (“rescue of ATP7B H1069Q localization” for short) in [1] is reported as “potently rescue”. In addition, the “rescue of ATP7B H1069Q (ER to Golgi)” value in assay [2] and in assay [3] was “rescue H1069Q potently” each time. Moreover, the “Copper levels in ATP7BH1069Q expressing cells” value in assay [4] is reported as “reduced”.

As for `C=C(c1ccc(C(=O)O)cc1)c1cc2c(cc1C)C(C)(C)CCC2(C)C` [Bexarotene], in assay [1], the “rescue of ATP7B H1069Q localization” value is recorded as “potently rescue”. Moreover, in assay [5] (48 h), the “levels of band B and band C of F508del-CFTR” value is listed as “robust increases”.

On to `CC(=O)Nc1ccc(C(=O)NC(C)(C)C)cc1` [CPI-1189], for which the “rescue of ATP7B H1069Q localization” value in assay [1] was “potently rescue”.

For the compound `C=C(C)[C@@H]1CCC(C)=C[C@H]1c1c(O)cc(CCCCC)cc1O` [Cannabidiol], the “rescue of ATP7B H1069Q localization” value in [1] is “potently rescue”.

Take `CC(O)C(=O)O.CN1CCN(c2ccc3nc(-c4c(N)c5c(F)cccc5[nH]c4=O)[nH]c3c2)CC1` [Dovitinib lactate]: in assay [5] (48 h), the “levels of band B and band C of F508del-CFTR” value is listed as “robust increases”.

With `Cc1cc(Nc2cc(N3CCN(C)CC3)nc(/C=C/c3ccccc3)n2)n[nH]1` [ENMD-2076], the “rescue of ATP7B H1069Q localization” value in assay [1] is reported as “potently rescue”.

As to `Fc1ccc(C(c2ccc(F)cc2)N2CCN(C/C=C/c3ccccc3)CC2)cc1` [Flunarizine], in [5] (48 h), the “correction of F508del-CFTR (levels of band C)” value (from here on “correction of F508del-CFTR”) was “increased”.

Regarding `OO` [H2O2], the F508del-CFTR levels entry in assay [5] (H2O2 at non-toxic concentrations, within a few minutes) is recorded as “marked drop”.

With `N#Cc1c(NC(=O)c2cccc3ccccc23)sc2c1CCCC2` [JNKi IX], the “levels of band B and band C of F508del-CFTR” value in [5] (48 h) is “robust increases”.

For the compound `O=[N+]([O-])c1cnc(Sc2nc3ccccc3s2)s1` [JNKi XI], in assay [5] (48 h), the “levels of band B and band C of F508del-CFTR” value was “robust increases”.

Turning to `COC(=O)[C@@]1(O)C[C@H]2O[C@]1(C)n1c3ccccc3c3c4c(c5c6ccccc6n2c5c31)C(=O)NC4` [K252a], in assay [5] (48 h), the “correction of F508del-CFTR” value is on record as “no clear effects”.

Turning to `CC(C)C[C@@H](C=O)NC(=O)[C@H](CC(C)C)NC(=O)[C@H](CC(C)C)NC(=O)OCc1ccccc1` [MG132] (Cbz-Leu-Leu-Leu-aldehyde), the “fluorescence levels of ZsProsensor-1 compared to untreated cells” value in assay [6] is recorded as “increases”.

Consider `COc1cc(O)c2c(c1)/C=C/C[C@H](O)[C@H](O)C(=O)/C=C\C[C@H](C)OC2=O` [Oxozeaenol, (5Z)-7-oxozeaenol], for which the “levels of band B and band C of F508del-CFTR” value in [5] (48 h) was “markedly increased”. The phospho-c-jun levels entry in assay [7] is “reduced”. In assay [8], the “percentage of the cells exhibiting ATP7BH1069Q in the ER” value (“percentage” for short) is on record as “reduced”. Also, the “correction of the F508del-CFTR proteostasis defect” value in assay [9] is on record as “effective”.

Take `Cc1ccc(Nc2nccc(N(C)c3ccc4c(C)n(C)nc4c3)n2)cc1S(N)(=O)=O` [Pazopanib]: the “levels of band B and band C of F508del-CFTR” value in assay [5] (48 h) is “robust increases”.

For `Oc1ccc(-c2nc(-c3ccncc3)c(-c3ccc(F)cc3)[nH]2)cc1` [SB202190], the “percentage” value in assay [8] was “reduced”.

For the compound `O=C(O)c1ccc2c3c1cccc3c(=O)n1c3ccccc3nc21` [STO-609], the “correction of F508del-CFTR” value in [5] (48 h) is recorded as “did not show any effect”.

Turning to `O=c1ncn2nc(Sc3ccc(F)cc3F)ccc2c1-c1c(Cl)cccc1Cl` [VX-745], in assay [8], the “percentage” value is listed as “reduced”. Besides, the “rescue of ATP7B H1069Q (ER to Golgi)” value in [2] and in [3] was “rescue H1069Q potently” throughout. In addition, in assay [4], the “Copper levels in ATP7BH1069Q expressing cells” value was “reduced”.

For `Cc1ccc(NC(=O)C2(c3ccc4c(c3)OC(F)(F)O4)CC2)nc1-c1cccc(C(=O)O)c1` [VX-809], the “level of ER-localised band B of F508del-CFTR” value in assay [5] (48 h) is reported as “limited increase”. Besides, the “increase of band C levels over control” value in assay [5] (VX-809 as reference for correction) is listed as 4-5 fold.

For `O=C1c2c(O)ccc(O)c2C(=O)c2c(NCCNCCO)ccc(NCCNCCO)c21` [mitoxantrone], the “levels of band B and band C of F508del-CFTR” value in [5] (48 h) is listed as “potently increase”.

In the case of `COc1ccc(CCN(C)CCCC(C#N)(c2ccc(OC)c(OC)c2)C(C)C)cc1OC` (stereo not drawn) [verapamil], the “correction of F508del-CFTR” value in assay [5] (48 h) was “did not show any effect”.

With TGF-β, the “decrease in levels of F508del-CFTR” value in [5] is 50%.

With TNF-α, in [5], the “decrease in levels of F508del-CFTR” value is reported as 50%.

(Values after patent publication US20200022957A1, “KINASE AND UBIQUITIN LIGASE INHIBITORS AND USES THEREOF” (ALDA S.R.L., priority 2015, published 2020).)
